Columns and labels:
[1] = 20° C.; cited from earlier work
MMP 13 = experiment: IL-1β-induced MMP 13 mRNA in SW1353 cells, qRT-PCR; assay type: cell-based, human
Protocol: (§1) Cell assay: SW1353 human chondrocytes (ATCC) were maintained in RPMI 1640 medium supplemented with 10% Foetal Calf Serum, L-Glutamine and 1% antibiotics. SW1353 cells were seeded 2.5×10^5 cells per well into 6-well plates. After 24 hours media was replaced with serum free media (SFM) and incubated over night. sCT (10 μM) with either PGE2(1 μM) or IL-1β (10 ng/ml) were added to cells in SFM for 1 hour. Dexamethasone (Dex, 10 μM) was the positive control for the down-regulation of NR4A2. Untreated controls were treated in an identical manner, but with serum-free medium alone. RNA was isolated from SW1353 cells.
Mix to be added to each reaction tube is 4 μL of 5× 1st Strand Buffer, 2 μL of 0.1 M DTT, 1 μL of RNase Out and 1 μL MMLV. Taq Cat# 10342-020 (this contains 0.1 M DTT, 5× 1st S. B.). NR4A and MMP1, 3, 9 and 13 levels were measured by qRT-PCR and expression levels were normalized to GAPDH levels.
Effects of sCT and the nanoparticle on MMP mRNA levels were also investigated. […] Both sCT, HA, and the polymeric nanoparticle down regulated MMP 13 by 47%, 31% and 88% (FIG. 6B). MMPs 1 and 3 were also down regulated. […] Dexamethasone, which is known to down regulate NR4A2 and is used for the treatment of rheumatoid arthritis, was used as a positive control in all experiments. […]

NR4A2 = NR4A2 expression in ankle joints of K/BxN sera-induced mice; assay type: in vivo, mouse; conditions: intra-peritoneal delivery
Description: On day 4 after K/BxN serum transfer, mice were sacrificed, and their hind paws above the knee joint were harvested for histology to assess the effects of drug treatments on inflammation and bone and cartilage degradation. The histology sections were stained with hematoxylin and eosin (H&E) and Saffarin O and scored blindly under 3 different categories (i) inflammation (synovitis infiltration and pannus formation), (ii) cartilage erosion and (iii) bone erosion. RNA was also isolated from both the ankle joint and knee joint tissue to measure expression of NR4A biomarkers.
RNA was isolated from the ankle joints of control and ‘inflamed’ K/BxN mice to measure expression of NR4A biomarkers. In K/BxN sera-induced mice with no treatment (therefore showing inflammation), high levels of NR4A1, NR4A2 and NR4A3 were over expressed, compared to naïve mice with no serum transfer (no inflammation (FIG. 20).
Expression of NR4A2 was measured in all groups (FIG. 21). […] Histological sections of the knee joint were scored by an observer blinded to the treatment under 3 different criteria (i) inflammation (synovitis infiltration and pannus formation), (ii) cartilage erosion and (iii) bone erosion on a scale of 0-3 (0, none; 1, minimal invasion of meniscus; 2, partial invasion of meniscus; 3, severe invasion of meniscus). […]

NR4A2 mRNA = experiment: PGE2-induced NR4A2 mRNA in SW1353 cells, qRT-PCR; assay type: cell-based, human; conditions: PGE2 1 μM, 1 hour
Protocol: as §1
RNA Extraction: Media was removed from the cells and 1 mL of TRIzol® (Invitrogen) was added to each well. Cells were homogenised by pipetting the added TRIzol® up and down for 8-10 times. […] Pellet was then resuspended in an appropriate volume of RNASE/DNASE free water and RNA in each sample was quantified at A260. […]
Mix to be added to each reaction tube is 4 μL of 5× 1st Strand Buffer, 2 μL of 0.1 M DTT, 1 μL of RNase Out and 1 μL MMLV. […] NR4A and MMP1, 3, 9 and 13 levels were measured by qRT-PCR and expression levels were normalized to GAPDH levels.
SW1353 cells were treated with sCT alone or polymeric nanoparticles comprising hyaluronic acid, chitosan, and sCT and PGE2 for 1 hour. Total RNA was extracted and assayed for NR4A2 mRNA levels by quantitative RT-PCR. […]

For salmon calcitonin [sCT], the water solubility [1] is given as “about 1 mg/ml”, the “down regulation of MMP 13 mRNA” value (MMP 13) is given as 47% and the “NR4A2 expression in the ankle joints” value (NR4A2) is given as “reduce NR4A2 expression”. For the same substance, the “inhibition of PGE2 induced NR4A2 transcript levels” value (NR4A2 mRNA) was 49%.
